The values that follow come from ChEMBL document CHEMBL5729670, “Method for controlling hematophagous or sap-feeding arthropods” (2023).

A word on the IC50: it is the concentration that inhibits the measured activity by half.

This experiment in a line: thallium-flux assay: The thallium flux assay is an in vitro method of measuring conductance through a potassium ion channel. Potassium channels are also permeable to thallium ions. The modulation of a K+ channel will thus increase or decrease thallium ion flow through the channel and thus, alter the observed fluorescence of a thallium-specific indicator dye.Stably transfected T-Rex-HEK-293-AnKir1 cells were cultured overnight in 384-well plates in media containing DMEM, 10% dialyzed FBS, and 1 μg/mL tetracycline to induce channel expression. The next day the cell culture medium was replaced with a dye-loading solution containing assay buffer (Hanks Balanced Salt Solution with 20 mM HEPES, pH 7.3), 0.01% (w/v) Pluronic F-127 (Life Technologies, Carlsbad, Calif.), and 1.2 μM of the thallium-sensitive dye Thallos-AM (TEFlabs, Austin, Tex.). After 1 hr incubation at room temperature, the dye-loading solution was washed from the plates and replaced with 20 μL/well of assay buffer. The plates were transferred to a Hamamatsu Functional Drug Screening System 6000 (FDSS6000; Hamamatsu, Tokyo, Japan), where 20 μL/well of each of the test compounds in assay buffer was added and allowed to incubate with the cells for 20 min. […].

Structures are written as SMILES.

Turning to `O=C(Cn1nc(C(F)(F)F)c2c1CCCC2)N1CCc2ccccc2C1`, the IC50 was determined as 15 µM.
